US9556135B2, “Amino-dihydrothiazine and amino-dioxido dihydrothiazine compounds as beta-secretase antagonists and methods of use” (Amgen Inc., priority 2012, dated 2017)

Tested on: Abeta 40
Assay: In vivo inhibition of beta-secretase: Abeta 40 reduction in CSF and brain of the rat
Conditions: 10 mpk (unless otherwise noted), after 4 hrs
Source text: In Vivo Inhibition of Beta-Secretase
Several animal models, including mouse, rat, dog, and monkey, may be used to screen for inhibition of beta-secretase activity in vivo following administration of a test compound sample. Animals used in this invention can be wild type, transgenic, or gene knockout animals. […] One to twenty-four hours following the administration of compound, animals are sacrificed, and brains as well as cerebrospinal fluid (CSF) and plasma are removed for analysis of A-beta levels and drug or test compound concentrations (Dovey et al., 2001, Journal of Neurochemistry, 76, 173-181) Beginning at time 0, animals are administered by oral gavage, or other means of delivery such as intravenous injection, an inhibitory test compound of up to 100 mg/kg in a standard, conventional formulation, such as 2% hydroxypropyl methylcellulose, 1% Tween80. A separate group of animals receive 2% hydroxypropyl methylcellulose, 1% Tween80 alone, containing no test compound, and serve as a vehicle-control group. At the end of the test period, animals are sacrificed and brain tissues, plasma or cerebrospinal fluid are collected. Brains are either homogenized in 10 volumes (w/v) of 0.2% diethylamine (DEA) in 50 mM NaCl (Best et al., 2005, Journal of Pharmacology and Experimental Therapeutics, 313, 902-908), or in 10 volumes of 0.5% TritonX-100 in Tris-buffered saline (pH at about 7.6). Homogenates are centrifuged at 355,000 g, 4° C. for 30 minutes. CSF or brain supernatants are then analyzed for the presence of A-beta peptide by specific sandwich ELISA assays based on ECL (Electrochemiluminescence) technology. For example, rat Abeta40 is measured using biotinylated-4G8 (Signet) as a capture antibody and Fab40 (an in-house antibody specific to the C-terminal of Abeta40) as a detection antibody.
Actual vehicles used: Oral: 2% HPMC, 1% Tween80, pH 2.2

SMILES	% reduction of rat CSF levels at 10 pmk	% reduction of rat brain levels at 10 mpk
CC1(C)C(N)=N[C@](C)(c2cc(NC(=O)c3ccc(F)cn3)ccc2F)CS1(=O)=O [Example 18, N-(3-((3R)-5-amino-3,6,6-trimethyl-1,1-dioxido-3,6-dihydro-2H-1,4-thiazin-3-yl)-4-fluorophenyl)-5-fluoro-2-pyridinecarboxamide]	73%	57%
CC1(C)C(N)=N[C@](C)(c2cc(NC(=O)c3ccc(Cl)cn3)ccc2F)CS1(=O)=O [Example 19, N-(3-((3R)-5-amino-3,6,6-trimethyl-1,1-dioxido-3,6-dihydro-2H-1,4-thiazin-3-yl)-4-fluorophenyl)-5-chloro-2-pyridinecarboxamide]	83%	74%
COc1cnc(C(=O)Nc2ccc(F)c([C@]3(C)CS(=O)(=O)[C@@](C)(F)C(N)=N3)c2)cn1 [Example 30, N-(3-((3R,6R)-5-amino-6-fluoro-3,6-dimethyl-1,1-dioxido-3,6-dihydro-2H-1,4-thiazin-3-yl)-4-fluorophenyl)-5-methoxy-2-pyrazinecarboxamide]	56%	37%
CC1(C)C(N)=N[C@](C)(c2cc(Nc3nccc4cc(Cl)cnc34)ccc2F)CS1(=O)=O [Example 45, N-(3-((3R)-5-amino-3,6,6-trimethyl-1,1-dioxido-3,6-dihydro-2H-1,4-thiazin-3-yl)-4-fluorophenyl)-3-chloro-1,7-naphthyridin-8-amine]	63%	34%
COc1cnc2c(Nc3ccc(F)c([C@]4(C)CS(=O)(=O)C(C)(C)C(N)=N4)c3)nccc2c1 [Example 46, N-(3-((3R)-5-amino-3,6,6-trimethyl-1,1-dioxido-3,6-dihydro-2H-1,4-thiazin-3-yl)-4-fluorophenyl)-3-methoxy-1,7-naphthyridin-8-amine]	76%	64%
COc1cnc2c(Nc3ccc(F)c([C@]4(C)CS(=O)(=O)C(C)(C)C(N)=N4)c3)nccc2n1 [Example 47, N-(3-((3R)-5-amino-3,6,6-trimethyl-1,1-dioxido-3,6-dihydro-2H-1,4-thiazin-3-yl)-4-fluorophenyl)-2-methoxypyrido[3,4-b]pyrazin-5-amine]	82%	66%
CC1(C)C(N)=N[C@](C)(c2cc(Nc3nccc4cc(C#N)cnc34)ccc2F)CS1(=O)=O [Example 48, 8-((3-((3R)-5-amino-3,6,6-trimethyl-1,1-dioxido-3,6-dihydro-2H-1,4-thiazin-3-yl)-4-fluorophenyl)amino)-1,7-naphthyridine-3-carbonitrile]	79%	59%
CC1(C)C(N)=N[C@](C)(c2cc(Nc3ncc(F)c4cc(C#N)cnc34)ccc2F)CS1(=O)=O [Example 76, (R)-8-((3-(5-Amino-3,6,6-trimethyl-1,1-dioxido-3,6-dihydro-2H-1,4-thiazin-3-yl)-4-fluorophenyl)amino)-5-fluoro-1,7-naphthyridine-3-carbonitrile]	60%	46%
C[C@@]1(c2cc(NC(=O)c3ccc(Cl)cn3)ccc2F)CS(=O)(=O)C2(CC(F)(F)C2)C(N)=N1 [Example 120, (R)—N-(3-(9-amino-2,2-difluoro-7-methyl-5,5-dioxido-5-thia-8-azaspiro[3.5]non-8-en-7-yl)-4-fluorophenyl)-5-chloropicolinamide]	39%	18%
C[C@]1(c2cc(NC(=O)c3ccc(Cl)cn3)ccc2F)N=C(N)C2(CCC2)S(=O)(=O)[C@@H]1F [Example 131, N-(3-((6S,7R)-9-amino-6-fluoro-7-methyl-5,5-dioxido-5-thia-8-azaspiro[3.5]non-8-en-7-yl)-4-fluorophenyl)-5-chloropicolinamide]	10%	−18%
Cc1cc(OC(F)F)cnc1C(=O)Nc1ccc(F)c([C@@]2(C)N=C(N)C3(CCC3)S(=O)(=O)[C@@H]2F)c1 [Example 132, N-(3-((6S,7R)-9-amino-6-fluoro-7-methyl-5,5-dioxido-5-thia-8-azaspiro[3.5]non-8-en-7-yl)-4-fluorophenyl)-5-(difluoromethoxy)-3-methylpicolinamide]	31%	10%
Cc1cc(OC(F)F)cnc1C(=O)Nc1ccc(F)c([C@]2(C)CS(=O)(=O)C(C)(C)C(N)=N2)c1 [Example 144, (R)—N-(3-(5-amino-3,6,6-trimethyl-1,1-dioxido-3,6-dihydro-2H-1,4-thiazin-3-yl)-4-fluorophenyl)-5-(difluoromethoxy)-3-methylpicolinamide]	79%	72%
Cc1cc(OC(F)F)cnc1C(=O)Nc1ccc(F)c([C@]2(CF)CS(=O)(=O)C(C)(C)C(N)=N2)c1 [Example 148, (S)—N-(3-(5-amino-3-(fluoromethyl)-6,6-dimethyl-1,1-dioxido-3,6-dihydro-2H-1,4-thiazin-3-yl)-4-fluorophenyl)-5-(difluoromethoxy)-3-methylpicolinamide]	68%	57%
Cc1c(C(=O)Nc2ccc(F)c([C@]3(CF)CS(=O)(=O)C(C)(C)C(N)=N3)c2)nc2ccc(Cl)cn12 [Example 158, (S)—N-(3-(5-amino-3-(fluoromethyl)-6,6-dimethyl-1,1-dioxido-3,6-dihydro-2H-1,4-thiazin-3-yl)-4-fluorophenyl)-6-chloro-3-methylimidazo[1,2-a]pyridine-2-carboxamide]	11%	−5%
COc1cnc2c(Nc3ccc(F)c([C@]4(CF)CS(=O)(=O)C(C)(C)C(N)=N4)c3)ncc(F)c2c1 [Example 159, (S)-5-amino-3-(2-fluoro-5-((5-fluoro-3-methoxy-1,7-naphthyridin-8-yl)amino)phenyl)-3-(fluoromethyl)-6,6-dimethyl-3,6-dihydro-2H-1,4-thiazine 1,1-dioxide]	45%	31%
Cc1cc(OC(F)F)cnc1C(=O)Nc1cc([C@]2(C)CS(=O)(=O)C(C)(C)C(N)=N2)c(=O)n(C)c1 [Example 171, (R)—N-(5-(5-amino-3,6,6-trimethyl-1,1-dioxido-3,6-dihydro-2H-1,4-thiazin-3-yl)-1-methyl-6-oxo-1,6-dihydropyridin-3-yl)-5-(difluoromethoxy)-3-methylpicolinamide]	1%	3%
COc1cnc2c(Nc3ccc(F)c([C@]4(C)CS(=O)(=O)[C@@](C)(F)C(N)=N4)c3)ncnc2c1 [Example 177, (3R,6R)-5-Amino-6-fluoro-3-(2-fluoro-5-((7-methoxypyrido[3,2-d]pyrimidin-4-yl)amino)phenyl)-3,6-dimethyl-3,6-dihydro-2H-1,4-thiazine 1,1-dioxide]	37%	24%
